Laboratory results as given in PubChem BioAssay AID1963965 (Molecular Pharmacology Branch, DTP, NCI, 2024).

System: 996289-038-R-J1-PDC spheroid viability
Test: Anticancer human tumor 996289-038-R-J1-PDC patient-derived colon adenocarcinoma cell line growth inhibition [PI3K]
Conditions: spheroids with HUVEC and MSC; for IC50: curve of first compound; for viability, T/C: stronger effect = lower value
Summary of the method: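 Multi-cell spheroids combine tumor cells with HUVEC and human MSCs, treated with targeted agents alone or with inavolisib, alpelisib, duvelisib or copanlisib. Concentrations fall in half-log steps from at or near clinical Cmax, or from 10 microM where Cmax is unknown; viability read-out.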

[1] = second compound 0.00316 µM, first compound 0.0316 µM
[2] = second compound 0.00316 µM, first compound 0.1 µM
[3] = second compound 0.01 µM, first compound 0.0316 µM
[4] = second compound 0.01 µM, first compound 0.1 µM
[5] = second compound 0.0316 µM, first compound 0.0316 µM
[6] = second compound 0.0316 µM, first compound 0.1 µM
[7] = second compound 0.1 µM, first compound 0.0316 µM
[8] = second compound 0.1 µM, first compound 0.1 µM
[9] = second compound 0.316 µM, first compound 0.0316 µM
[10] = second compound 0.316 µM, first compound 0.1 µM
[11] = second compound 1 µM, first compound 0.0316 µM
[12] = second compound 1 µM, first compound 0.1 µM
[13] = second compound 0.0316 µM, first compound 0.316 µM
[14] = second compound 0.0316 µM, first compound 1 µM
[15] = second compound 0.0316 µM, first compound 3.16 µM
[16] = second compound 0.0316 µM, first compound 10 µM
[17] = second compound 0.1 µM, first compound 0.316 µM
[18] = second compound 0.1 µM, first compound 1 µM
[19] = second compound 0.1 µM, first compound 3.16 µM
[20] = second compound 0.1 µM, first compound 10 µM
[21] = second compound 0.316 µM, first compound 0.316 µM
[22] = second compound 0.316 µM, first compound 1 µM
[23] = second compound 0.316 µM, first compound 3.16 µM
[24] = second compound 0.316 µM, first compound 10 µM
[25] = second compound 1 µM, first compound 0.316 µM
[26] = second compound 1 µM, first compound 1 µM
[27] = second compound 1 µM, first compound 3.16 µM
[28] = second compound 1 µM, first compound 10 µM
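Also: spheroids exposed to compounds for seven days before viability read.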
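For viability, T/C in this document: luminescence used as a proxy for viable cell amount; percent viability relative to DMSO vehicle control as 100%.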

For `CC(C)n1nc(-c2ccc3oc(N)nc3c2)c2c(N)ncnc21` + COc1c(OCCCN2CCOCC2)ccc2c3n(c(=NC(=O)c4cnc(N)nc4)nc12)CCN3, the IC50 (second compound 0.00316 µM) was 54.7 nM, the IC50 (second compound 0.01 µM) was 49.6 nM and the IC50 (second compound 0.0316 µM) was 31.6 nM. For the same compound, the IC50 (second compound 0.1 µM) was 7.59 nM, the IC50 (second compound 0.316 µM) was < 0.316 nM and the IC50 (second compound 1 µM) was < 0.316 nM. It also gave a viability, T/C (second compound 0.00316 µM, first compound 0.000316 µM) of 92%, a viability, T/C (second compound 0.00316 µM, first compound 0.001 µM) of 81.8% and a viability, T/C (second compound 0.00316 µM, first compound 0.00316 µM) of 83.2%. It also gave a viability, T/C (second compound 0.00316 µM, first compound 0.01 µM) of 81.4%, a viability, T/C [1] of 63.5% and a viability, T/C [2] of 34.5%. The viability, T/C (second compound 0.01 µM, first compound 0.000316 µM) was 92.1%, the viability, T/C (second compound 0.01 µM, first compound 0.001 µM) was 79.2% and the viability, T/C (second compound 0.01 µM, first compound 0.00316 µM) was 91.3%. For the same compound, the viability, T/C (second compound 0.01 µM, first compound 0.01 µM) was 82.8%, the viability, T/C [3] was 65.7% and the viability, T/C [4] was 25.6%. It also gave a viability, T/C (second compound 0.0316 µM, first compound 0.000316 µM) of 69%, a viability, T/C (second compound 0.0316 µM, first compound 0.001 µM) of 73.7% and a viability, T/C (second compound 0.0316 µM, first compound 0.00316 µM) of 77.9%. For the same compound, the viability, T/C (second compound 0.0316 µM, first compound 0.01 µM) was 68.3%, the viability, T/C [5] was 50.2% and the viability, T/C [6] was 25.1%. It also gave a viability, T/C (second compound 0.1 µM, first compound 0.000316 µM) of 59.1%, a viability, T/C (second compound 0.1 µM, first compound 0.001 µM) of 56.6% and a viability, T/C (second compound 0.1 µM, first compound 0.00316 µM) of 54.1%. It also gave a viability, T/C (second compound 0.1 µM, first compound 0.01 µM) of 48.3%, a viability, T/C [7] of 37.8% and a viability, T/C [8] of 16.1%. For the same compound, the viability, T/C (second compound 0.316 µM, first compound 0.000316 µM) was 34.8%, the viability, T/C (second compound 0.316 µM, first compound 0.001 µM) was 32.9% and the viability, T/C (second compound 0.316 µM, first compound 0.00316 µM) was 29.9%. It also gave a viability, T/C (second compound 0.316 µM, first compound 0.01 µM) of 35%, a viability, T/C [9] of 24.9% and a viability, T/C [10] of 10.9%. For the same compound, the viability, T/C (second compound 1 µM, first compound 0.000316 µM) was 20.9%, the viability, T/C (second compound 1 µM, first compound 0.001 µM) was 16.9% and the viability, T/C (second compound 1 µM, first compound 0.00316 µM) was 16.4%. It also gave a viability, T/C (second compound 1 µM, first compound 0.01 µM) of 16.6%, a viability, T/C [11] of 14.4% and a viability, T/C [12] of 10.3%.

`CC(C)NCC(C(=O)N1CCN(c2ncnc3c2C(C)CC3O)CC1)c1ccc(Cl)cc1` (stereo unspecified) + CC(Nc1ccc2c(c1)OCCn1cc(N3C(=O)OCC3C(F)F)nc1-2)C(N)=O was tested, and the IC50 (second compound 0.00316 µM) was > 10000 nM, the IC50 (second compound 0.01 µM) was > 10000 nM and the IC50 (second compound 0.0316 µM) was > 10000 nM. For the same compound, the IC50 (second compound 0.1 µM) was > 10000 nM, the IC50 (second compound 0.316 µM) was > 10000 nM and the IC50 (second compound 1 µM) was > 10000 nM. It also gave a viability, T/C [1] of 86%, a viability, T/C [2] of 95.3% and a viability, T/C (second compound 0.00316 µM, first compound 0.316 µM) of 98.6%. The viability, T/C (second compound 0.00316 µM, first compound 1 µM) was 98.1%, the viability, T/C (second compound 0.00316 µM, first compound 3.16 µM) was 85.3% and the viability, T/C (second compound 0.00316 µM, first compound 10 µM) was 66.8%. For the same compound, the viability, T/C [3] was 87.2%, the viability, T/C [4] was 88% and the viability, T/C (second compound 0.01 µM, first compound 0.316 µM) was 91.6%. For the same compound, the viability, T/C (second compound 0.01 µM, first compound 1 µM) was 91.8%, the viability, T/C (second compound 0.01 µM, first compound 3.16 µM) was 82.1% and the viability, T/C (second compound 0.01 µM, first compound 10 µM) was 54.7%. It also gave a viability, T/C [5] of 105%, a viability, T/C [6] of 91.6% and a viability, T/C [13] of 88.7%. The viability, T/C [14] was 88.4%, the viability, T/C [15] was 78.5% and the viability, T/C [16] was 53.6%. For the same compound, the viability, T/C [7] was 79.8%, the viability, T/C [8] was 71.1% and the viability, T/C [17] was 76%. For the same compound, the viability, T/C [18] was 80%, the viability, T/C [19] was 62% and the viability, T/C [20] was 67.5%. The viability, T/C [9] was 57.9%, the viability, T/C [10] was 81.2% and the viability, T/C [21] was 64.3%. For the same compound, the viability, T/C [22] was 65%, the viability, T/C [23] was 73.7% and the viability, T/C [24] was 46%. For the same compound, the viability, T/C [11] was 64.9%, the viability, T/C [12] was 57.1% and the viability, T/C [25] was 53.5%. The viability, T/C [26] was 55.3%, the viability, T/C [27] was 52.5% and the viability, T/C [28] was 53.5%.

For `CCCS(=O)(=O)Nc1ccc(F)c(C(=O)c2c[nH]c3ncc(-c4ccc(Cl)cc4)cc23)c1F` + Cc1nc(NC(=O)N2CCCC2C(N)=O)sc1-c1ccnc(C(C)(C)C(F)(F)F)c1, the IC50 (second compound 0.0316 µM) was 5900 nM, the IC50 (second compound 0.1 µM) was 5510 nM and the IC50 (second compound 0.316 µM) was 5540 nM. The IC50 (second compound 1 µM) was 3450 nM, the IC50 (second compound 3.16 µM) was 1520 nM and the IC50 (second compound 10 µM) was 31.6 nM. It also gave a viability, T/C [5] of 90.2%, a viability, T/C [6] of 86.1% and a viability, T/C [13] of 108%. The viability, T/C [14] was 96.1%, the viability, T/C [15] was 82.6% and the viability, T/C [16] was 22%. For the same compound, the viability, T/C [7] was 95.9%, the viability, T/C [8] was 87.7% and the viability, T/C [17] was 91.6%. The viability, T/C [18] was 88.3%, the viability, T/C [19] was 79.5% and the viability, T/C [20] was 18.5%. For the same compound, the viability, T/C [9] was 84.2%, the viability, T/C [10] was 84.8% and the viability, T/C [21] was 80.2%. It also gave a viability, T/C [22] of 81.3%, a viability, T/C [23] of 70.5% and a viability, T/C [24] of 28.3%. The viability, T/C [11] was 70.4%, the viability, T/C [12] was 79.6% and the viability, T/C [25] was 70.5%. It also gave a viability, T/C [26] of 66.7%, a viability, T/C [27] of 53.1% and a viability, T/C [28] of 17%. It also gave a viability, T/C (second compound 3.16 µM, first compound 0.0316 µM) of 61.1%, a viability, T/C (second compound 3.16 µM, first compound 0.1 µM) of 63.5% and a viability, T/C (second compound 3.16 µM, first compound 0.316 µM) of 57.3%. For the same compound, the viability, T/C (second compound 3.16 µM, first compound 1 µM) was 54.1%, the viability, T/C (second compound 3.16 µM, first compound 3.16 µM) was 43.2% and the viability, T/C (second compound 3.16 µM, first compound 10 µM) was 15.4%. For the same compound, the viability, T/C (second compound 10 µM, first compound 0.0316 µM) was 44%, the viability, T/C (second compound 10 µM, first compound 0.1 µM) was 44.8% and the viability, T/C (second compound 10 µM, first compound 0.316 µM) was 43.3%. The viability, T/C (second compound 10 µM, first compound 1 µM) was 53.2%, the viability, T/C (second compound 10 µM, first compound 3.16 µM) was 31.9% and the viability, T/C (second compound 10 µM, first compound 10 µM) was 11.5%.
